In patent US20190169134A1, “NOVEL CLASS OF QUINOLONE HETEROCYCLIC AROMATIC MOLECULES FOR CANCER TREATMENT” (RenoTarget Therapeutics, Inc., priority 2016, published 2019):

Experiments:
Assay in all cases: KinaseSeeker competition binding assay
RET = molecular target: T1, RET (Homo sapiens, UniProt P07949)
T1 construct: made in house; host or cells: cell-free, rabbit reticulocyte lysate
Method: (§1) Compound Reno647 was profiled against the following panel of kinases at 2 μM using the KinaseSeeker™ assay: ABL1, AKT1, AKT2, AKT3, ALK, AURKA, AXL, BRAF, BTK, CDK2, CDK5, CDK7, CDK8, CSF1R, DDR1, EGFR del L747-P753 InsS, EGFR (L861Q), EGFR (G719S), EGFR, EGFR (L858R), EPHA2, EPHB2, FGFR3, FLT1/VEGFR1, FLT2/FGFR1, FLT3, FLT4/VEGFR3, GSK-3a, HER2, IGF1R, INSR, KIT, LIMK1, MET, MLK2/MAP3K10, RPS6KA5/MSK1, MUSK, p38a/MAPK12, PDGFRA, PDGFRB, PDK1, RET, RIPK2, RPS6KA1/RSK1, SRC, TEC, TESK1, TRKB, VEGFR2, and YES 1.
(§2) KinaseSeeker is a homogeneous competition binding assay where the displacement of an active site dependent probe by an inhibitor is measured by a change in luminescence signal (see FIG. 7). Luminescence readout translates into a highly sensitive and robust assay with low background and minimal interference from test compounds.
(§3) (Jester, Cox et al. 2010; Jester, Gaj et al. 2012): 10 mM stock of compound Reno647 was diluted in DMSO to a concentration of 50 μM. Prior to initiating a profiling campaign, the compound was evaluated for false positive against split-luciferase. The compound was then screened in duplicate against each of the kinases. For kinase assays, each Cfluc-Kinase was translated along with Fos-Nfluc using a cell-free system (rabbit reticulocyte lysate) at 30° C. for 90 min. A 24 μL aliquot of this lysate containing either 1 μL of DMSO (for no-inhibitor control) or compound solution in DMSO (2 LM final concentration) was incubated for 30 minutes at room temperature followed by 1 hour in the presence of a kinase specific probe. A 80 μL of luciferin assay reagent was added to each solution and luminescence was immediately measured on a luminometer.
(§4) The % Inhibition and % Activity Remaining were calculated using the following equations:
(§5) % inhibition=(ALUcontrol−ALUsample)×100
(§6) % activity=100−% inhibition.

FLT4 = molecular target: T2, FLT4 (Homo sapiens, UniProt P35916)
T2 construct: made in house; host or cells: cell-free, rabbit reticulocyte lysate
Method: as §1, §2, §3, §4, §5, §6

KIT-KD = molecular target: T3, KIT-KD (Homo sapiens, UniProt P10721)
T3 construct: KIT-KD; made in house; host or cells: cell-free, rabbit reticulocyte lysate
Method: as §1, §2, §3, §4, §5, §6

ABL1 = molecular target: T4, ABL1 (Homo sapiens, UniProt P00519)
T4 construct: made in house; host or cells: cell-free system (rabbit reticulocyte lysate)
Method: as §1, §2, §3, §4, §5, §6

FLT1 = molecular target: T5, FLT1 (Homo sapiens, UniProt P17948)
T5 construct: made in house; host or cells: cell-free system (rabbit reticulocyte lysate)
Method: as §1, §2, §3, §4, §5, §6

FLT2 = molecular target: T6, FLT2 (Homo sapiens, UniProt P11362)
T6 construct: made in house; host or cells: cell-free system (rabbit reticulocyte lysate)
Method: as §1, §2, §3, §4, §5, §6

LIMK1 = molecular target: T7, LIMK1 (Homo sapiens, UniProt P53667)
T7 construct: made in house; host or cells: cell-free, rabbit reticulocyte lysate
Method: as §1, §2, §3, §4, §5, §6

INSR = molecular target: T8, INSR (Homo sapiens, UniProt P06213)
T8 construct: made in house; host or cells: cell-free, rabbit reticulocyte lysate
Method: as §1, §2, §3, §4, §5, §6

FGFR3 = molecular target: T9, FGFR3 (Homo sapiens, UniProt P22607)
T9 construct: made in house; host or cells: cell-free system (rabbit reticulocyte lysate)
Method: as §1, §2, §3, §4, §5, §6

FLT3 = molecular target: T10, FLT3 (Homo sapiens, UniProt P36888)
T10 construct: made in house; host or cells: cell-free, rabbit reticulocyte lysate
Method: as §1, §2, §3, §4, §5, §6

AKT2 = molecular target: T11, AKT2 (Homo sapiens, UniProt P31751)
T11 construct: made in house; host or cells: cell-free system (rabbit reticulocyte lysate)
Method: as §1, §2, §3, §4, §5, §6

PDGFRA = molecular target: T12, PDGFRA (Homo sapiens, UniProt P16234)
T12 construct: made in house; host or cells: cell-free, rabbit reticulocyte lysate
Method: as §1, §2, §3, §4, §5, §6

SRC = molecular target: T13, SRC (Homo sapiens, UniProt P12931)
T13 construct: made in house; host or cells: cell-free, rabbit reticulocyte lysate
Method: as §1, §2, §3, §4, §5, §6

p38a = conditions: 2 μM
Method: as §1, §2, §3, §4, §5, §6

CSF1R = molecular target: T14, CSF1R (Homo sapiens, UniProt P07333)
T14 construct: made in house; host or cells: cell-free system (rabbit reticulocyte lysate)
Method: as §1, §2, §3, §4, §5, §6

YES1 = molecular target: T15, YES1 (Homo sapiens, UniProt P07947)
T15 construct: made in house; host or cells: cell-free, rabbit reticulocyte lysate
Method: as §1, §2, §3, §4, §5, §6

EPHB2 = molecular target: T16, EPHB2 (Homo sapiens, UniProt P29323)
T16 construct: made in house; host or cells: cell-free system (rabbit reticulocyte lysate)
Method: as §1, §2, §3, §4, §5, §6

RIPK2 = molecular target: T17, RIPK2 (Homo sapiens, UniProt O43353)
T17 construct: made in house; host or cells: cell-free, rabbit reticulocyte lysate
Method: as §1, §2, §3, §4, §5, §6

PDPK1 = molecular target: T18, PDPK1 (Homo sapiens, UniProt O15530)
T18 construct: made in house; host or cells: cell-free, rabbit reticulocyte lysate
Method: as §1, §2, §3, §4, §5, §6

RSK1 = molecular target: T19, RSK1 (Homo sapiens, UniProt Q15418)
T19 construct: made in house; host or cells: cell-free, rabbit reticulocyte lysate
Method: as §1, §2, §3, §4, §5, §6

CDK8 = molecular target: T20, CDK8 (Homo sapiens, UniProt P49336)
T20 construct: made in house; host or cells: cell-free system (rabbit reticulocyte lysate)
Method: as §1, §2, §3, §4, §5, §6

MSK1 = molecular target: T21, MSK1 (Homo sapiens, UniProt O75582)
T21 construct: made in house; host or cells: cell-free, rabbit reticulocyte lysate
Method: as §1, §2, §3, §4, §5, §6

VEGFR2 = molecular target: T22, VEGFR2 (Homo sapiens, UniProt P35968)
T22 construct: made in house; host or cells: cell-free, rabbit reticulocyte lysate
Method: as §1, §2, §3, §4, §5, §6

PDGFRB = molecular target: T23, PDGFRB (Homo sapiens, UniProt P09619)
T23 construct: made in house; host or cells: cell-free, rabbit reticulocyte lysate
Method: as §1, §2, §3, §4, §5, §6

CDK5 = molecular target: T24, CDK5 (Homo sapiens, UniProt Q00535)
T24 construct: made in house; host or cells: cell-free system (rabbit reticulocyte lysate)
Method: as §1, §2, §3, §4, §5, §6

CDK2 - Cyclin E1 = molecular target: T25, CDK2 - Cyclin E1 (Homo sapiens, UniProt P24941)
T25 construct: made in house; host or cells: cell-free system (rabbit reticulocyte lysate)
Method: as §1, §2, §3, §4, §5, §6

BRAF = molecular target: T26, BRAF (Homo sapiens, UniProt P15056)
T26 construct: made in house; host or cells: cell-free system (rabbit reticulocyte lysate)
Method: as §1, §2, §3, §4, §5, §6

AKT3 = molecular target: T27, AKT3 (Homo sapiens, UniProt Q9Y243)
T27 construct: made in house; host or cells: cell-free system (rabbit reticulocyte lysate)
Method: as §1, §2, §3, §4, §5, §6

ALK = molecular target: T28, ALK (Homo sapiens, UniProt Q9UM73)
T28 construct: made in house; host or cells: cell-free system (rabbit reticulocyte lysate)
Method: as §1, §2, §3, §4, §5, §6

T4 sequence (P00519 whole entry): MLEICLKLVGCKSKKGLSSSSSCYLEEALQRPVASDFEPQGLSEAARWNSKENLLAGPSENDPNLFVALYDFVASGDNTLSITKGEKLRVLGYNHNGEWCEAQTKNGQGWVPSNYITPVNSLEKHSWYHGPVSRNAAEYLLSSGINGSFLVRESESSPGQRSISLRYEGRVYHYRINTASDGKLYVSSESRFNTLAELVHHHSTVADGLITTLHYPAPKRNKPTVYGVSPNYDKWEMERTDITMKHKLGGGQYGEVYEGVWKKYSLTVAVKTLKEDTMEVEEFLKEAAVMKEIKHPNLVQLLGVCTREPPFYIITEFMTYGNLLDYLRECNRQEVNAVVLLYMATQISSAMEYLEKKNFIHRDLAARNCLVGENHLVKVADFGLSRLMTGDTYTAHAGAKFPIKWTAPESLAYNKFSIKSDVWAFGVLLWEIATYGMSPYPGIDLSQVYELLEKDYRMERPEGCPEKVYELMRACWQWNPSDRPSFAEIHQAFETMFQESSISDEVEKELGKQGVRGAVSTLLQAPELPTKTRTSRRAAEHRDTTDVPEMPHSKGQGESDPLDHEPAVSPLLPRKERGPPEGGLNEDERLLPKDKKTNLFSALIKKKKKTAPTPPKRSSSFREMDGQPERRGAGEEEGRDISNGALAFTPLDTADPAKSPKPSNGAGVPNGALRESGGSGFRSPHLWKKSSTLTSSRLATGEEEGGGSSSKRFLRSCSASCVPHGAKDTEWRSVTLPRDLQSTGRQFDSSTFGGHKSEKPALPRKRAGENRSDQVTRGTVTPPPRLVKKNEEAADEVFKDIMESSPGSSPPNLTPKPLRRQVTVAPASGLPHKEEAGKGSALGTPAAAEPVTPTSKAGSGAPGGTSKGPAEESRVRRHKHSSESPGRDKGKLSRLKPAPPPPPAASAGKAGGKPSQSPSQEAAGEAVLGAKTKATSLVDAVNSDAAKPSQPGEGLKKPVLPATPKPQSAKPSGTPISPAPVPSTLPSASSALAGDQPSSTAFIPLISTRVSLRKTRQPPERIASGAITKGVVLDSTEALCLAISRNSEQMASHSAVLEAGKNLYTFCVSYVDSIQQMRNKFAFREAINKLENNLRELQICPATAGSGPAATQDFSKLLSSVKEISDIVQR
T20 sequence (P49336 whole entry): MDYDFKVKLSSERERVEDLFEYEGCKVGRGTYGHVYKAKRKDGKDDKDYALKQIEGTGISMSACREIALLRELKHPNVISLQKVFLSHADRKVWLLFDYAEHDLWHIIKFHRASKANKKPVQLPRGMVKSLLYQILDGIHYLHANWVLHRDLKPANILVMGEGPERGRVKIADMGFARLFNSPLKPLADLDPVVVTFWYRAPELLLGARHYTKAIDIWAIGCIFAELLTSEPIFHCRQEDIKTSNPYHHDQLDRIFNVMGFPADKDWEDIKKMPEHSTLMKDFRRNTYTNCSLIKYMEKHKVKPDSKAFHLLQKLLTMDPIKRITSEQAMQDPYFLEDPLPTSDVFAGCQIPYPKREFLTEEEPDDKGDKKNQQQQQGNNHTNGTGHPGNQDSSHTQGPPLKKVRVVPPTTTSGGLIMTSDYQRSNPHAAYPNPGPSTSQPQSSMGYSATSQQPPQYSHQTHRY
T18 sequence (O15530 whole entry): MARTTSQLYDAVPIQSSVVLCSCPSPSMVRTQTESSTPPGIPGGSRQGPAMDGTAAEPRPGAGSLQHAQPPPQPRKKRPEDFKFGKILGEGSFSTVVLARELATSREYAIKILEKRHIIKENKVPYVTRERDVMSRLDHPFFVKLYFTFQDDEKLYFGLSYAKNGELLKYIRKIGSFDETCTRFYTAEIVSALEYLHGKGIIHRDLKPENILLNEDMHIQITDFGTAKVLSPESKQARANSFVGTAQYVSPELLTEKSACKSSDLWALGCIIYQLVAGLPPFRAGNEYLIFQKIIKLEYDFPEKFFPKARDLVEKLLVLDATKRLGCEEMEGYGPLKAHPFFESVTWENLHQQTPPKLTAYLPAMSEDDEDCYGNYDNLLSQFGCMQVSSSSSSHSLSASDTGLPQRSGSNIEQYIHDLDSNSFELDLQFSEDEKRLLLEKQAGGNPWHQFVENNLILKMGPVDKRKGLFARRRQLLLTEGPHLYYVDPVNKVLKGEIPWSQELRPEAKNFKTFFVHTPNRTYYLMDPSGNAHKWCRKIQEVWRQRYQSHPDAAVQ
T19 sequence (Q15418 whole entry): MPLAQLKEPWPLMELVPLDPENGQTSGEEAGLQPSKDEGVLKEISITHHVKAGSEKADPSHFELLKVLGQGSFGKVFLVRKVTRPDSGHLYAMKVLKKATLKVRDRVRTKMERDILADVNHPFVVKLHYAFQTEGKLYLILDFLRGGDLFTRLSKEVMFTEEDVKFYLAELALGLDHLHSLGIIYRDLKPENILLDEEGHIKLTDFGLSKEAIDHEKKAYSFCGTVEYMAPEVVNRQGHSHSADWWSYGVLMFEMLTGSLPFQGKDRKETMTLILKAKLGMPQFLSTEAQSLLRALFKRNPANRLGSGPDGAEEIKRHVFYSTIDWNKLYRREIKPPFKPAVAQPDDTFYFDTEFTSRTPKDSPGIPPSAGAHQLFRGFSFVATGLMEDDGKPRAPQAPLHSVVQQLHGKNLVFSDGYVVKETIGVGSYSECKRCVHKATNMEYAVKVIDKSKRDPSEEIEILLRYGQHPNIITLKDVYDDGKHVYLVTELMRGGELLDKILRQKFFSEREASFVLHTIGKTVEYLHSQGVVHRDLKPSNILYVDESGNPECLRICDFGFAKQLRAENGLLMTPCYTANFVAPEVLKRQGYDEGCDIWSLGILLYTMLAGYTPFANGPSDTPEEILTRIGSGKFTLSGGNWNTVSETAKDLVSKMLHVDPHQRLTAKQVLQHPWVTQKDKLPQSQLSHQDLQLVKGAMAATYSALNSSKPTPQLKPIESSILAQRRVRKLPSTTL
T27 sequence (Q9Y243 whole entry): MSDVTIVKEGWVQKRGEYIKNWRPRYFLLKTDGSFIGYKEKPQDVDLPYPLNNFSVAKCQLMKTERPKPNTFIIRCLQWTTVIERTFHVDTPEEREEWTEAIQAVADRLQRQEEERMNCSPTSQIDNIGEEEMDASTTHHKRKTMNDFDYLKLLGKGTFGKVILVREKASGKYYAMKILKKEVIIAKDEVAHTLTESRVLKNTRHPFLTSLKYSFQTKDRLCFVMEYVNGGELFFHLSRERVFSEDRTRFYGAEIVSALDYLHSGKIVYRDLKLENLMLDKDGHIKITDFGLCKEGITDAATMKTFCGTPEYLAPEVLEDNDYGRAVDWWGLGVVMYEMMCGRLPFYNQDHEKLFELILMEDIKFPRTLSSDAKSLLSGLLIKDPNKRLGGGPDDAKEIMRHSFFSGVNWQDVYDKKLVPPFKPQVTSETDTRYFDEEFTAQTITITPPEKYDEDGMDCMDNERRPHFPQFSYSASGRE
T12 sequence (P16234 24-1089): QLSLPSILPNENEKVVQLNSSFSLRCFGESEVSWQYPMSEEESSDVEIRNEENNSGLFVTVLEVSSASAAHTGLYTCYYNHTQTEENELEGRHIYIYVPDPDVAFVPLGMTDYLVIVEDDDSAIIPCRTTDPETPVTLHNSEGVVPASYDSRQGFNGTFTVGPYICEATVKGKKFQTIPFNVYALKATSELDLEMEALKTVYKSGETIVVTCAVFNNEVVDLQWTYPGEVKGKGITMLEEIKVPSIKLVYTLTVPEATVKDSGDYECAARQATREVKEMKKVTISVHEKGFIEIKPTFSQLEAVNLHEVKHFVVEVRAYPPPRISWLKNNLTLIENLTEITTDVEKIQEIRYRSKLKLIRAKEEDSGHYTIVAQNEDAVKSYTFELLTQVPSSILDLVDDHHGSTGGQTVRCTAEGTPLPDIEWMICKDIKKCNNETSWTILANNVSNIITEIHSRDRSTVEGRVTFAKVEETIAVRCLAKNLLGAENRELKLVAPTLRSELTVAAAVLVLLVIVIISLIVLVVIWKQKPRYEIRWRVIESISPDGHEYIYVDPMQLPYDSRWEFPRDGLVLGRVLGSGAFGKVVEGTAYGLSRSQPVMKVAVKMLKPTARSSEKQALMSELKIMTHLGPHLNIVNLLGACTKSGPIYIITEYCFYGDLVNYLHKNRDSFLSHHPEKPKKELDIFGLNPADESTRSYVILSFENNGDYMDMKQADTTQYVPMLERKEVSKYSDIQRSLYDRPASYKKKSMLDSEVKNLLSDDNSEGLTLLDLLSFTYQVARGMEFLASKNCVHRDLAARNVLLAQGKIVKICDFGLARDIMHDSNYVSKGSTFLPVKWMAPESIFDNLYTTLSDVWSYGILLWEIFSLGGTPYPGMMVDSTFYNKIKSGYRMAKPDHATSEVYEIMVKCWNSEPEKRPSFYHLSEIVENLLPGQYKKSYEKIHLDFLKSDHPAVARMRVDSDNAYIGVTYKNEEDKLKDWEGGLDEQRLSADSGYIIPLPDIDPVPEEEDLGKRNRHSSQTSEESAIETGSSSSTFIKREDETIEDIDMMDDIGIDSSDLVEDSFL
T3 sequence (P10721 589-937 limits assumed): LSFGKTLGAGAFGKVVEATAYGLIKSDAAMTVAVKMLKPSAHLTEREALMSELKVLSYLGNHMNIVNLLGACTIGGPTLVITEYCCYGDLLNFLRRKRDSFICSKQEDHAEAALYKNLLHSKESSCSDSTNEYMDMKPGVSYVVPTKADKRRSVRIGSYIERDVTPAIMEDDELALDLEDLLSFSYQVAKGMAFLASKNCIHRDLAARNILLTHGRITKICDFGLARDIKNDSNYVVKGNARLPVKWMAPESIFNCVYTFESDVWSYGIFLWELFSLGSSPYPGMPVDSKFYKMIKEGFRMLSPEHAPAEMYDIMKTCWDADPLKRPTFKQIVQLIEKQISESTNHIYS

C#Cc1cccc(Nc2ncnc3cc(OCCOC)c(NC(=O)c4ccc(F)c([N+](=O)[O-])c4)cc23)c1 [Reno647, 4-Fluoro-N-[4-(3-ethynyl-phenylamino)-7-(2-methoxy-ethoxy)-quinazolin-6-yl]-3-nitro-benzamide]
remaining binding at 2 µM (RET): 100% | remaining binding at 2 µM (FLT4): 79.8% | remaining binding at 2 µM (KIT-KD): 90% | remaining binding at 2 µM (ABL1): 100% | remaining binding at 2 µM (FLT1): 80.5% | remaining binding at 2 µM (FLT2): 51.7% | remaining binding at 2 µM (LIMK1): 100% | remaining binding at 2 µM (INSR): 84.6% | remaining binding at 2 µM (FGFR3): 98.9% | remaining binding at 2 µM (FLT3): 100% | remaining binding at 2 µM (AKT2): 100% | remaining binding at 2 µM (PDGFRA): 96.4% | remaining binding at 2 µM (SRC): 84.9% | % Activity Remaining (p38a): 100.0% | remaining binding at 2 µM (CSF1R): 97.6% | remaining binding at 2 µM (YES1): 87.1% | remaining binding at 2 µM (EPHB2): 100% | remaining binding at 2 µM (RIPK2): ~41% | remaining binding at 2 µM (PDPK1): 92.8% | remaining binding at 2 µM (RSK1): 100% | remaining binding at 2 µM (CDK8): 92.3% | remaining binding at 2 µM (MSK1): 100% | remaining binding at 2 µM (VEGFR2): 92.8% | remaining binding at 2 µM (PDGFRB): 76.6% | remaining binding at 2 µM (CDK5): 99.5% | remaining binding at 2 µM (CDK2 - Cyclin E1): 100% | remaining binding at 2 µM (BRAF): 100% | remaining binding at 2 µM (AKT3): 100% | remaining binding at 2 µM (ALK): 92.1%
